ChEMBL document CHEMBL5212743, “Selectivity Literature for EUbOPEN Chemogenomics Library wave 3” (2023)
Each block holds one compound with its values, some of them ahead of it.

Experiments:
[1] = target: Tyrosine-protein kinase ABL2 (Homo sapiens) (UniProt P42684); experiment: Selectivity interaction (KinomeScan (DiscoverX)) EUB0000686a ABL2; details: at 1 µM
[2] = target: Histone-lysine N-methyltransferase EZH2 (Homo sapiens, UniProt Q15910); experiment: Selectivity interaction (Protein methyltransferase panel (activity assay)) EUB0000211b EZH2
[3] = target: Protein arginine N-methyltransferase 3 (Homo sapiens, UniProt O60678); experiment: Selectivity interaction (Protein methyltransferase panel (activity assay)) EUB0000211b PRMT3
[4] = target: Histone-lysine N-methyltransferase SETD7 (Homo sapiens) (UniProt Q8WTS6); experiment: Selectivity interaction (Protein methyltransferase panel (activity assay)) EUB0000211b SETD7
[5] = target: Histone-lysine N-methyltransferase, H3 lysine-79 specific (Homo sapiens, UniProt Q8TEK3); experiment: Selectivity interaction (Protein methyltransferase panel (activity assay)) EUB0000211b DOT1L
[6] = target: Histone-lysine N-methyltransferase SETDB1 (Homo sapiens, UniProt Q15047); experiment: Selectivity interaction (Protein methyltransferase panel (activity assay)) EUB0000211b SETDB1
[7] = target: Histone-lysine N-methyltransferase SUV39H2 (Homo sapiens, UniProt Q9H5I1); experiment: Selectivity interaction (Protein methyltransferase panel (activity assay)) EUB0000211b SUV39H2
[8] = target: Histone-lysine N-methyltransferase EHMT2 (Homo sapiens) (UniProt Q96KQ7); experiment: Selectivity interaction (Protein methyltransferase panel (activity assay)) EUB0000211b EHMT2
Histone-lysine N-methyltransferase EHMT2 (Homo sapiens), sequence (Q96KQ7 whole entry): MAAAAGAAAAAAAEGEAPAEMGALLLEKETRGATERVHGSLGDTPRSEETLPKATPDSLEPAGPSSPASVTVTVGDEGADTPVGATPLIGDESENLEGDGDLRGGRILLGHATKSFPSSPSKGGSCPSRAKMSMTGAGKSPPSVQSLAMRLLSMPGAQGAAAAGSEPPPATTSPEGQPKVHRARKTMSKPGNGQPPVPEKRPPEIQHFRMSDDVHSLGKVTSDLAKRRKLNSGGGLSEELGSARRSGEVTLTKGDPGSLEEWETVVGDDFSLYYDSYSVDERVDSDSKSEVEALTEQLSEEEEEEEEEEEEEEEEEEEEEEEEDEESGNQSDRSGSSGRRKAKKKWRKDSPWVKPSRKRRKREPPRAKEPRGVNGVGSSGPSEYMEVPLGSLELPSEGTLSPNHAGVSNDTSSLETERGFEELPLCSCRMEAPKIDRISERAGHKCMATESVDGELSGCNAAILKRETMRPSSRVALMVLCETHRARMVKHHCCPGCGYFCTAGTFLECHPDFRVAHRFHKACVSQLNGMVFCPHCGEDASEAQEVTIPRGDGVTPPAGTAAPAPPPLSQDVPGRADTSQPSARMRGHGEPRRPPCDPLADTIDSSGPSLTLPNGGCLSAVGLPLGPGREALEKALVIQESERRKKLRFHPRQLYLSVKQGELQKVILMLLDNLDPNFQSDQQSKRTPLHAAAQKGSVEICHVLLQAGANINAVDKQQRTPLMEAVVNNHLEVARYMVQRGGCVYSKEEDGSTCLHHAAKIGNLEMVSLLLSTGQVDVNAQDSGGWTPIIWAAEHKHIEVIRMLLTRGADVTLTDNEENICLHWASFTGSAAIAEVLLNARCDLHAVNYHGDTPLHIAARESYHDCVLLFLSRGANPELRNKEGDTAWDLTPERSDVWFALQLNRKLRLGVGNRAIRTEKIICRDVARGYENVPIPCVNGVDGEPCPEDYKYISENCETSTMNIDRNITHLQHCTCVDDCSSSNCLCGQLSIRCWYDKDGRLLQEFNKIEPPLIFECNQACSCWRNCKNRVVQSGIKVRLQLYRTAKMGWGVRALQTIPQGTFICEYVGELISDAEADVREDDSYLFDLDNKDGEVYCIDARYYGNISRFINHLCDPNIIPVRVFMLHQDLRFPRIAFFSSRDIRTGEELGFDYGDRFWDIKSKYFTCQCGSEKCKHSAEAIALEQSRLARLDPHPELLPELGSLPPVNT

[9] = target: Protein arginine N-methyltransferase 9 (Homo sapiens) (UniProt Q6P2P2); experiment: Selectivity interaction (Protein methyltransferase panel (activity assay)) EUB0000211b PRMT9
[10] = target: Protein arginine N-methyltransferase 5 (Homo sapiens, UniProt O14744); experiment: Selectivity interaction (Protein methyltransferase panel (activity assay)) EUB0000211b PRMT5
[11] = target: Histone-lysine N-methyltransferase KMT5C (Homo sapiens, UniProt Q86Y97); experiment: Selectivity interaction (Protein methyltransferase panel (activity assay)) EUB0000211b SUV420H2
[12] = target: Histone-lysine N-methyltransferase NSD2 (Homo sapiens) (UniProt O96028); experiment: Selectivity interaction (Protein methyltransferase panel (activity assay)) EUB0000211b NSD2
[13] = target: Protein arginine N-methyltransferase 6 (Homo sapiens, UniProt Q96LA8); experiment: Selectivity interaction (Protein methyltransferase panel (activity assay)) EUB0000211b PRMT6
[14] = target: Histone-lysine N-methyltransferase, H3 lysine-36 specific (Homo sapiens) (UniProt Q96L73); experiment: Selectivity interaction (Protein methyltransferase panel (activity assay)) EUB0000211b NSD1
[15] = target: Protein arginine N-methyltransferase 1 (Homo sapiens, UniProt Q99873); experiment: Selectivity interaction (Protein methyltransferase panel (activity assay)) EUB0000211b PRMT1
[16] = target: Protein arginine N-methyltransferase 8 (Homo sapiens, UniProt Q9NR22); experiment: Selectivity interaction (Protein methyltransferase panel (activity assay)) EUB0000211b PRMT8
[17] = target: DNA (cytosine-5)-methyltransferase 1 (Homo sapiens, UniProt P26358); experiment: Selectivity interaction (Protein methyltransferase panel (activity assay)) EUB0000211b DNMT1
DNA (cytosine-5)-methyltransferase 1, sequence (P26358 whole entry): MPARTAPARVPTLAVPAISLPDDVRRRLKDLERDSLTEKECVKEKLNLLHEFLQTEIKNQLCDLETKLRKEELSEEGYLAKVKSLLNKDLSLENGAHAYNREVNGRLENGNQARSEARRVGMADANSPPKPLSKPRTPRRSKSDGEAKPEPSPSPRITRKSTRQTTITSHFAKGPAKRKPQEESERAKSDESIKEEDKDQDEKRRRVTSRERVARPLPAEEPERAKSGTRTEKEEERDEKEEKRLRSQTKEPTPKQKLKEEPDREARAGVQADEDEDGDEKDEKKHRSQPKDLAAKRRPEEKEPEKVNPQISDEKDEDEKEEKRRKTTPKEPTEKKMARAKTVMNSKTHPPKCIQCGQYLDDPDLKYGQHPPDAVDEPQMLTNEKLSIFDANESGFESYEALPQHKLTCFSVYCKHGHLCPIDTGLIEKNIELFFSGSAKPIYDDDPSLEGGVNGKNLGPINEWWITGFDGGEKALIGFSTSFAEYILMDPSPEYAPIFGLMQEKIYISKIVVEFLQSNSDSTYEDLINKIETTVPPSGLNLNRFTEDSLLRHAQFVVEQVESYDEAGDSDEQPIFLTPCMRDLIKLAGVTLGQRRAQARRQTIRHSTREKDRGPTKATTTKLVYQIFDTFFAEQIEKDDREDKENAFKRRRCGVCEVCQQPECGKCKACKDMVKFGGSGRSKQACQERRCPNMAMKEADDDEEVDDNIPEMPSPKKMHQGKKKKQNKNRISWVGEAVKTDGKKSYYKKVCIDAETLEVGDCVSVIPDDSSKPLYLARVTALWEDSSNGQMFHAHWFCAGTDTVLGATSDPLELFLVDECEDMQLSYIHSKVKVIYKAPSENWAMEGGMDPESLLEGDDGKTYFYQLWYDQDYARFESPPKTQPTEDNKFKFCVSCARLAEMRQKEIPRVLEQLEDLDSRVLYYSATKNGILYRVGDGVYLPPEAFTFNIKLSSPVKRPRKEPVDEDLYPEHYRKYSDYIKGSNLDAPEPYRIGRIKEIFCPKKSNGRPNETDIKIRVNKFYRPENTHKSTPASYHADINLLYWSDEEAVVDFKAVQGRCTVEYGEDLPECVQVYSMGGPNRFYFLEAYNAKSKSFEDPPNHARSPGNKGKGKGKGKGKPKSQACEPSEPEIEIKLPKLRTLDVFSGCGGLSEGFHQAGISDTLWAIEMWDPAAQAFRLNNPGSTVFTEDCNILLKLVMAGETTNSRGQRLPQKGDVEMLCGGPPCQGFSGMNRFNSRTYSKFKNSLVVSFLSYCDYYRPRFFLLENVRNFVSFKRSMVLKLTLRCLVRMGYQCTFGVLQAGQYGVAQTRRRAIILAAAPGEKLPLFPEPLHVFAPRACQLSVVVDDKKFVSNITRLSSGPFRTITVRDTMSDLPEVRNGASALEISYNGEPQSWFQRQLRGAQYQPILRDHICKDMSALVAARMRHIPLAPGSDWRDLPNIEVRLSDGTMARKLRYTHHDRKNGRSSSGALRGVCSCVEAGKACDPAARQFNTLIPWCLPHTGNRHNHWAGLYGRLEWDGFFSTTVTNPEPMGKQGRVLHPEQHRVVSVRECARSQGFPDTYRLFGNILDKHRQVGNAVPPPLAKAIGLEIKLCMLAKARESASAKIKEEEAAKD

[18] = target: Histone-lysine N-methyltransferase NSD3 (Homo sapiens) (UniProt Q9BZ95); experiment: Selectivity interaction (Protein methyltransferase panel (activity assay)) EUB0000211b NSD3
[19] = target: Histone-lysine N-methyltransferase KMT5B (Homo sapiens, UniProt Q4FZB7); experiment: Selectivity interaction (Protein methyltransferase panel (activity assay)) EUB0000211b SUV420H1
[20] = target: Histone-lysine N-methyltransferase EHMT1 (Homo sapiens) (UniProt Q9H9B1); experiment: Selectivity interaction (Protein methyltransferase panel (activity assay)) EUB0000211b EHMT1
[21] = target: Histone-lysine N-methyltransferase EZH1 (Homo sapiens) (UniProt Q92800); experiment: Selectivity interaction (Protein methyltransferase panel (activity assay)) EUB0000211b EZH1
[22] = target: N-lysine methyltransferase SMYD2 (Homo sapiens, UniProt Q9NRG4); experiment: Selectivity interaction (Protein methyltransferase panel (activity assay)) EUB0000211b SMYD2
[23] = target: N-lysine methyltransferase KMT5A (Homo sapiens) (UniProt Q9NQR1); experiment: Selectivity interaction (Protein methyltransferase panel (activity assay)) EUB0000211b SETD8
[24] = target: Tudor domain-containing protein 3 (Homo sapiens) (UniProt Q9H7E2); experiment: Selectivity interaction (Methyl-Lysine/Arginine panel (DSF assay)) EUB0000211b TDRD3; details: OICR-# does not inhibit the C/EBPa p30-Wdr5 interaction (Western Blot), PMID: #;, Selectivity Remarks In vitro, Selectivity Source Knowledge https://www.thesgc.org/chemical-probes/OICR-9429, S
Tudor domain-containing protein 3 (Homo sapiens), sequence (Q9H7E2 whole entry, the tested form may be a part): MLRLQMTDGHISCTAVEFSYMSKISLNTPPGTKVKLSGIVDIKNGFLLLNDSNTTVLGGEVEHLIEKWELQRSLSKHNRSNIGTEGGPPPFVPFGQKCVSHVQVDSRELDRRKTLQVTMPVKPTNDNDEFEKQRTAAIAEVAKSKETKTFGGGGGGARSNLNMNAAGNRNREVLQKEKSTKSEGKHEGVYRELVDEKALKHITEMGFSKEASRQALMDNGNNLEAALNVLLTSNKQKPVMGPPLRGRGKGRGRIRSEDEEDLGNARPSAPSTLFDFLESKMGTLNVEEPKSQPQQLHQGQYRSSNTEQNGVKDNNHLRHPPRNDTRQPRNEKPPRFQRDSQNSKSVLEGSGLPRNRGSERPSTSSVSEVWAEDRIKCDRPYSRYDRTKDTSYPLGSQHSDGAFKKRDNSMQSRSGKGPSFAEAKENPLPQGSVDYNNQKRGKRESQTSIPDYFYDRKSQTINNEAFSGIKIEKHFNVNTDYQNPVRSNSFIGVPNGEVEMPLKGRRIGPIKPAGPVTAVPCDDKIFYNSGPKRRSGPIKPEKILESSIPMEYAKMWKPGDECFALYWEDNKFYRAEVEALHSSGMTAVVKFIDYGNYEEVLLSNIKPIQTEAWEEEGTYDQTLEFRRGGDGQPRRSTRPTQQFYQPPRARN

[25] = target: Staphylococcal nuclease domain-containing protein 1 (Homo sapiens) (UniProt Q7KZF4); experiment: Selectivity interaction (Reader proteins panel (DSF assay)) EUB0000034d SND1
[26] = target: E3 ubiquitin-protein ligase UHRF1 (Homo sapiens) (UniProt Q96T88); experiment: Selectivity interaction (Reader proteins panel (DSF assay)) EUB0000034d UHRF1
[27] = target: WD repeat-containing protein 5 (Homo sapiens) (UniProt P61964); experiment: Selectivity interaction (Reader proteins panel (DSF assay)) EUB0000034d WDR5
[28] = target: Histone-lysine N-methyltransferase SETD2 (Homo sapiens, UniProt Q9BYW2); experiment: Selectivity interaction (Methyltransferase panel) EUB0000034d SETD2; details: at 10 µM
[29] = target: RNA-binding protein FXR1 (Homo sapiens) (UniProt P51114); experiment: Selectivity interaction (Reader proteins panel (DSF assay)) EUB0000034d FXR1
[30] = target: Growth/differentiation factor 2 (Homo sapiens) (UniProt Q9UK05); experiment: Selectivity interaction (Reader proteins panel (DSF assay)) EUB0000034d GDF2
[31] = target: Polycomb protein EED (Homo sapiens) (UniProt O75530); experiment: Selectivity interaction (Reader proteins panel (DSF assay)) EUB0000034d EED
Polycomb protein EED (Homo sapiens), sequence (O75530 2-441 limits assumed): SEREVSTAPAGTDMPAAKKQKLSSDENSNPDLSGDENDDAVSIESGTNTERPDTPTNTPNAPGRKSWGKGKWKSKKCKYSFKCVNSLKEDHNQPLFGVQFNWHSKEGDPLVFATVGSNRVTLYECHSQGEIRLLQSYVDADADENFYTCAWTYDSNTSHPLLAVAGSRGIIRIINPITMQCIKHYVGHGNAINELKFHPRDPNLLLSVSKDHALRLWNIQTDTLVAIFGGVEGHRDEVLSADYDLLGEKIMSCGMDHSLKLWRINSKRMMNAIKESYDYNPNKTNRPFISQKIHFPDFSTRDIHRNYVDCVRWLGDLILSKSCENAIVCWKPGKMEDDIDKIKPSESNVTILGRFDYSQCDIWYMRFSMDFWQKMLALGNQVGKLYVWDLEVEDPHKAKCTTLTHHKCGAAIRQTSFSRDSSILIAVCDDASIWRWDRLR

[32] = target: AT-rich interactive domain-containing protein 4A (Homo sapiens) (UniProt P29374); experiment: Selectivity interaction (Reader proteins panel (DSF assay)) EUB0000034d ARID4A
[33] = target: Tudor domain-containing protein 3 (Homo sapiens) (UniProt Q9H7E2); experiment: Selectivity interaction (Reader proteins panel (DSF assay)) EUB0000034d TDRD3
[34] = target: Peregrin (Homo sapiens) (UniProt P55201); experiment: Selectivity interaction (Reader proteins panel (DSF assay)) EUB0000034d BRPF1

Tyrosine-protein kinase ABL2 (Homo sapiens), sequence (P42684 whole entry): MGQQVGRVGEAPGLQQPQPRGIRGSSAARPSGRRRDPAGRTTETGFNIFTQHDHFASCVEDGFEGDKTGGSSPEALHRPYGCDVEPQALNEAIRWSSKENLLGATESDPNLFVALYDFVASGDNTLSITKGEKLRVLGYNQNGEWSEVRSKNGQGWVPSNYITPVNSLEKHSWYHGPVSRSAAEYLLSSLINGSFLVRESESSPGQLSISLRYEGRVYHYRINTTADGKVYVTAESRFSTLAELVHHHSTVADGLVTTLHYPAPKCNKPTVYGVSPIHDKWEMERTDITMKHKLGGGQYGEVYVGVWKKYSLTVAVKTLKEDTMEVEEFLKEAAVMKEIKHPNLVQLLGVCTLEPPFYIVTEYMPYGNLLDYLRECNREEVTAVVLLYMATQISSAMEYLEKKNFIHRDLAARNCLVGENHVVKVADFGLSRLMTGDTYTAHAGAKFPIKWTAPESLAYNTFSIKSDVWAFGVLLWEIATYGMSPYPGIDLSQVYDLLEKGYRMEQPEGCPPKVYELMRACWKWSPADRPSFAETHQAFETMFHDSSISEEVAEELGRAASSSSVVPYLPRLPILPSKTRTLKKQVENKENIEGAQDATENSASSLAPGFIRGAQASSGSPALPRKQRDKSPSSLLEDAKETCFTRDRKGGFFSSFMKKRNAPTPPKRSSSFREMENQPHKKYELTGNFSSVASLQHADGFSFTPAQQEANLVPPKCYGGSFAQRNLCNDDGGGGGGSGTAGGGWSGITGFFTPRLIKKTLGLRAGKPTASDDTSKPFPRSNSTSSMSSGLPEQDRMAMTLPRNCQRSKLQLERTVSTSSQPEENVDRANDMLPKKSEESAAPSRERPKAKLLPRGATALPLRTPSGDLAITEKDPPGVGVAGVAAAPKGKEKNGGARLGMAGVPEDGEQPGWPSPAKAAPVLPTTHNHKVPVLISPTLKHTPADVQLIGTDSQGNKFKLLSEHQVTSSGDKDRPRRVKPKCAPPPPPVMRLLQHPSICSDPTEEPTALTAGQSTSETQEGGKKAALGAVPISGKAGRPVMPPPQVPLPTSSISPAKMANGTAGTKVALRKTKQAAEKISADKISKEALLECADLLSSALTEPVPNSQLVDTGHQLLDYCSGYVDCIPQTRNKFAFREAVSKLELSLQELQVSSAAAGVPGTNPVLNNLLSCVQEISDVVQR

% of control [1]: 5.8%
Compound: CN(C)C(=O)c1cc2cnc(Nc3ccc(N4CCNCC4)cn3)nc2n1C1CCCC1

% activity remaining [2]: > 90%
% activity remaining [3]: > 90%
% activity remaining [4]: > 90%
% activity remaining [5]: > 90%
% activity remaining [6]: > 90%
% activity remaining [7]: > 90%
% activity remaining [8]: > 90%
% activity remaining [9]: > 90%
% activity remaining [10]: > 90%
% activity remaining [11]: > 90%
% activity remaining [12]: > 80%
% activity remaining [13]: > 90%
% activity remaining [14]: > 90%
% activity remaining [15]: > 90%
% activity remaining [16]: > 90%
% activity remaining [17]: > 90%
% activity remaining [18]: > 90%
% activity remaining [19]: > 90%
% activity remaining [20]: > 90%
% activity remaining [21]: > 90%
% activity remaining [22]: > 90%
% activity remaining [23]: > 90%
dTm [24]: 1.8 K
Compound: CN1CCN(c2ccc(-c3cccc(CN4CCOCC4)c3)cc2NC(=O)c2c[nH]c(=O)cc2C(F)(F)F)CC1

dTm [25]: < 2 K
dTm [26]: < 2 K
dTm [27]: < 2 K
% activity remaining [28]: 80%
dTm [29]: < 2 K
dTm [30]: < 2 K
dTm [31]: < 2 K
dTm [32]: < 2 K
dTm [33]: < 2 K
dTm [34]: < 2 K
Compound: CC(C)Oc1ccc(-c2c[nH]cc2CN(C)CCN)cc1
